Results published in patent publication US11254686B1 (Corvus Pharmaceuticals, Inc., priority 2017, dated 2022).
Like-named read-outs stand apart in the source and are kept apart here.

Columns and labels:
adenosine A1 receptor [1] = target: T1, adenosine A1 receptor (Homo sapiens (Human), UniProt P30542); assay: Adenosine receptor activity assay (Table 1), A1 cAMP; assay type: biochemical
adenosine A3 receptor [2] = target: T2, adenosine A3 receptor (Homo sapiens (Human), UniProt P0DMS8); assay: Adenosine receptor activity assay (Table 1), A3 cAMP; assay type: biochemical
T2 sequence (P0DMS8 whole entry): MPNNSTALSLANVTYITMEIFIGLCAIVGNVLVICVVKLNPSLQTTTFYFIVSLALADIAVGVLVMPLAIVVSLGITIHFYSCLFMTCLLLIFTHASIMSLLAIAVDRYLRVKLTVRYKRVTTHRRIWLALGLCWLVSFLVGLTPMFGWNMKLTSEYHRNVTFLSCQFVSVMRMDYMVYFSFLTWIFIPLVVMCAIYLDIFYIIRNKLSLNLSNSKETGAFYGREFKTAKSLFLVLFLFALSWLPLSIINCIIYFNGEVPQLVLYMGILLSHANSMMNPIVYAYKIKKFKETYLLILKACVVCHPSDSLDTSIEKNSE

adenosine A2B receptor = adenosine A2B receptor (Homo sapiens (Human), UniProt P29275); assay: Adenosine receptor activity assay (Table 1), A2B activity; assay type: biochemical; conditions: for IC50: read-out: Ave A2B cAMP IC50
Sequence of adenosine A2B receptor (P29275 whole entry): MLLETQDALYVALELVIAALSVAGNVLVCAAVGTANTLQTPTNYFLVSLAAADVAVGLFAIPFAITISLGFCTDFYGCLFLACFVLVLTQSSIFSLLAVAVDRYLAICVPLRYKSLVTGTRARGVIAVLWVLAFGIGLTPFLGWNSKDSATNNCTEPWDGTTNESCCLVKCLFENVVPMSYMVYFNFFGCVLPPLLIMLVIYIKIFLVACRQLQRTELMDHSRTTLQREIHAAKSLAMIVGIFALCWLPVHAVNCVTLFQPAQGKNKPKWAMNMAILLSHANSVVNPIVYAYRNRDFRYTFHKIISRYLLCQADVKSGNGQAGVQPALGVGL

adenosine A2A receptor = adenosine A2A receptor (Homo sapiens (Human), UniProt P29274); assay: Adenosine receptor activity assay (Table 1), A2A activity; assay type: biochemical; conditions: read-out: Ave A2A cAMP IC50
Sequence of adenosine A2A receptor (P29274 whole entry): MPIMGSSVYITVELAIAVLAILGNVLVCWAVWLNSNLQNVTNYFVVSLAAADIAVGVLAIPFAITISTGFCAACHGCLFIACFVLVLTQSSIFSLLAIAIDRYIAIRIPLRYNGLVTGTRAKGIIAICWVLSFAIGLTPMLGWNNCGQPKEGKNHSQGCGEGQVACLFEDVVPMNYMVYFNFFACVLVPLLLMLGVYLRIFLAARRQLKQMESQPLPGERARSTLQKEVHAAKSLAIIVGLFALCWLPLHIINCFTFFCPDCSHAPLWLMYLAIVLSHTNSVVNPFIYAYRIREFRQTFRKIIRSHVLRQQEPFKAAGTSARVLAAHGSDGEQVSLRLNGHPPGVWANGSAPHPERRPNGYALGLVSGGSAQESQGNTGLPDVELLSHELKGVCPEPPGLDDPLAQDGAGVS

[3] = Hepatocyte (Hep) intrinsic clearance, rat; assay type: in vitro ADME; conditions: hepatocytes
adenosine A3 receptor [4] = target: T2, adenosine A3 receptor; assay: A3 cAMP IC50 assay (Table 1); assay type: biochemical
adenosine A1 receptor [5] = target: T1, adenosine A1 receptor; assay: A1 cAMP IC50 assay (Table 1); assay type: biochemical
[6] = Hepatocyte (Hep) intrinsic clearance, human; assay type: in vitro ADME; conditions: hepatocytes
[7] = A2A activity to the A2B activity, A2A/A2B
[8] = A2A activity to A2B activity (A2A/A2B)

T1 sequence (P30542 whole entry): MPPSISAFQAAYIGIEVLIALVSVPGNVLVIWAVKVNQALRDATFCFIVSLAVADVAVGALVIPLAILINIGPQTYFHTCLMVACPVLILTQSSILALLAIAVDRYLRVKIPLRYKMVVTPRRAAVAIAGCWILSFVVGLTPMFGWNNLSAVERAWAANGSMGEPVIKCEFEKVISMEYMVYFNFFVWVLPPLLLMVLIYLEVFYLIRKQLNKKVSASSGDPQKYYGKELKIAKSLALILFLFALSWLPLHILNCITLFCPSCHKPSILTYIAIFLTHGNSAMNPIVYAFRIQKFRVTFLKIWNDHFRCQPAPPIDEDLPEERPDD

IC50 (adenosine A1 receptor [1]) | IC50 (adenosine A3 receptor [2]) | Ratio (adenosine A2B receptor; [7]) | IC50 (adenosine A2B receptor; cAMP) | IC50 (adenosine A2A receptor; cAMP) | hepatocyte CLint [3] | IC50 (adenosine A3 receptor [4]) | IC50 (adenosine A1 receptor [5]) | Ratio (adenosine A2B receptor; [8]) | IC50 (adenosine A2B receptor) | hepatocyte CLint [6] | IC50 (adenosine A2A receptor) | Compound
> 500 nM | 100 to 500 nM | 1.62 | < 10 nM | 10 to 50 nM |  |  |  |  |  |  |  | C[C@H](Nc1nc(C(=O)N2CC(NC(=O)c3cccc(C(F)(F)F)c3)C2)c2sccc2n1)c1cncc(F)c1 [Example Z633, (S)—N-(1-(2-((1-(5-Fluoropyridin-3-yl)ethyl)amino)thieno[3,2-d]pyrimidine-4-carbonyl)azetidin-3-yl)-3-(trifluoromethyl)benzamide]
> 500 nM | 100 to 500 nM | 0.98 | 10 to 50 nM | 10 to 50 nM |  |  |  |  |  |  |  | C[C@H](Nc1nc(C(=O)N2CC(NC(=O)[C@H]3CC[C@H](C)CC3)C2)c2sccc2n1)c1cncc(F)c1 [Example Z639, Trans-N-(1-(2-(((S)-1-(5-fluoropyridin-3-yl)ethyl)amino)thieno[3,2-d]pyrimidine-4-carbonyl)azetidin-3-yl)-4-methylcyclohexane-1-carboxamide]
> 500 nM | 10 to 50 nM | 0.13 | 10 to 50 nM | < 10 nM |  |  |  |  |  |  |  | C[C@H](Nc1nc(C(=O)N2CC(NC(=O)C34CCC(CC3)CC4)C2)c2sccc2n1)c1cncc(F)c1 [Example Z637, (S)—N-(1-(2-((1-(5-Fluoropyridin-3-yl)ethyl)amino)thieno[3,2-d]pyrimidine-4-carbonyl)azetidin-3-yl)bicyclo[2.2.2]octane-1-carboxamide]
> 500 nM | 100 to 500 nM | 1.16 | 10 to 50 nM | 10 to 50 nM |  |  |  |  |  |  |  | Cc1cc(C(=O)NC2CN(C(=O)c3nc(N[C@@H](C)c4cncc(F)c4)nc4ccsc34)C2)c(C)o1 [Example Z647, (S)—N-(1-(2-((1-(5-Fluoropyridin-3-yl)ethyl)amino)thieno[3,2-d]pyrimidine-4-carbonyl)azetidin-3-yl)-2,5-dimethylfuran-3-carboxamide]
> 500 nM | 100 to 500 nM | 1.00 | < 10 nM | < 10 nM |  |  |  |  |  |  |  | C[C@H](Nc1nc(C(=O)N2CC(NC(=O)C3(C)CC3)C2)c2sccc2n1)c1cncc(F)c1 [Example Z603, (S)—N-(1-(2-((1-(5-Fluoropyridin-3-yl)ethyl)amino)thieno[3,2-d]pyrimidine-4-carbonyl)azetidin-3-yl)-1-methylcyclopropane-1-carboxamide]
> 500 nM | > 500 nM | 4.32 | < 10 nM | 10 to 50 nM |  |  |  |  |  |  |  | C[C@H](Nc1nc(C(=O)N2CC(NC(=O)c3ccc(F)c(F)c3)C2)c2sccc2n1)c1cncc(F)c1 [Example Z616, (S)-3,4-Difluoro-N-(1-(2-((1-(5-fluoropyridin-3-yl)ethyl)amino)thieno[3,2-d]pyrimidine-4-carbonyl)azetidin-3-yl)benzamide]
 |  |  |  |  | 26.7 µL/min/1e6 cells | > 500 nM | > 500 nM | 45.25 | < 10 nM | 10.6 µL/min/1e6 cells | 100 to 500 nM | C[C@H](O)CNC(=O)c1nc(N[C@@H](C)c2cncc(F)c2)nc2ccsc12 [Example Z191, 2-(((S)-1-(5-Fluoropyridin-3-yl)ethyl)amino)-N—((S)-2-hydroxypropyl)thieno[3,2-d]pyrimidine-4-carboxamide]
 |  |  |  |  | 37 µL/min/1e6 cells | > 500 nM | > 500 nM | 46.14 | < 10 nM | 12 µL/min/1e6 cells | 100 to 500 nM | COC1CN(C(=O)c2nc(N[C@@H](C)c3cncc(F)c3)nc3ccsc23)C1 [Example Z185, (S)-(2-((1-(5-Fluoropyridin-3-yl)ethyl)amino)thieno[3,2-d]pyrimidin-4-yl)(3-methoxyazetidin-1-yl)methanone]
 |  |  |  |  | 14.8 µL/min/1e6 cells | > 500 nM | > 500 nM | 73.68 | < 10 nM | 5.66 µL/min/1e6 cells | > 500 nM | C[C@H](Nc1nc(C(=O)N2CC[C@H](O)C2)c2sccc2n1)c1cncc(F)c1 [Example Z165, (2-(((S)-1-(5-Fluoropyridin-3-yl)ethyl)amino)thieno[3,2-d]pyrimidin-4-yl)((S)-3-hydroxypyrrolidin-1-yl)methanone]
 |  |  |  |  | 16.6 µL/min/1e6 cells | > 500 nM | > 500 nM | 62.32 | 10 to 50 nM | 4.51 µL/min/1e6 cells | > 500 nM | C[C@H](Nc1nc(C(=O)N2CC[C@@H](O)C2)c2sccc2n1)c1cncc(F)c1 [Example Z166, (2-(((S)-1-(5-Fluoropyridin-3-yl)ethyl)amino)thieno[3,2-d]pyrimidin-4-yl)((R)-3-hydroxypyrrolidin-1-yl)methanone]
 |  |  |  |  | 23.7 µL/min/1e6 cells | > 500 nM | > 500 nM | 34.96 | < 10 nM | 10.1 µL/min/1e6 cells | 50 to 100 nM | C[C@H](Nc1nc(C(=O)NC[C@@H](C)O)c2sccc2n1)c1cncc(F)c1 [Example Z190, 2-(((S)-1-(5-Fluoropyridin-3-yl)ethyl)amino)-N—((R)-2-hydroxypropyl)thieno[3,2-d]pyrimidine-4-carboxamide]
 |  |  |  |  | 34 µL/min/1e6 cells | > 500 nM | > 500 nM | 49.96 | < 10 nM | 13.5 µL/min/1e6 cells | 50 to 100 nM | C[C@H](Nc1nc(C(=O)N2CCC2)c2sccc2n1)c1cncc(F)c1 [Example Z164, (S)-Azetidin-1-yl(2-((1-(5-fluoropyridin-3-yl)ethyl)amino)thieno[3,2-d]pyrimidin-4-yl)methanone]

Further lines, the compound ahead of its results:

Compound | IC50 (adenosine A1 receptor [1]) | IC50 (adenosine A3 receptor [2]) | Ratio (adenosine A2B receptor; [7]) | IC50 (adenosine A2B receptor; cAMP) | IC50 (adenosine A2A receptor; cAMP) | hepatocyte CLint [3] | IC50 (adenosine A3 receptor [4]) | IC50 (adenosine A1 receptor [5]) | Ratio (adenosine A2B receptor; [8]) | IC50 (adenosine A2B receptor) | hepatocyte CLint [6] | IC50 (adenosine A2A receptor)
N-(tert-Butoxy)-1-(2-(((S)-1-(5-fluoropyridin-3-yl)ethyl)amino)-6-methylthieno[3,2-d]pyrimidine-4-carbonyl)pyrrolidine-3-carboxamide [Example Z602] | > 500 nM | 100 to 500 nM | 0.49 | 10 to 50 nM | < 10 nM |  |  |  |  |  |  | 
O=C(NC1CCC1)c1nc(NCc2cncc(F)c2)nc2ccsc12 [Example Z171, N-Cyclobutyl-2-(((5-fluoropyridin-3-yl)methyl)amino)thieno[3,2-d]pyrimidine-4-carboxamide] |  |  |  |  |  | 91.4 µL/min/1e6 cells | > 500 nM | 100 to 500 nM | 22.94 | < 10 nM | 51.4 µL/min/1e6 cells | 50 to 100 nM
CNc1cc2nc(N[C@@H](C)c3cncc(F)c3)nc(C(=O)N3CC[C@H](O)C3)c2s1 [Example Z197, (2-(((S)-1-(5-Fluoropyridin-3-yl)ethyl)amino)-6-(methylamino)thieno[3,2-d]pyrimidin-4-yl)((S)-3-hydroxypyrrolidin-1-yl)methanone] |  |  |  |  |  | 16.2 µL/min/1e6 cells | > 500 nM | > 500 nM | 298.42 | < 10 nM | 3.34 µL/min/1e6 cells | > 500 nM
N#Cc1cncc(CNc2nc(C(=O)N3CCCC3)c3sccc3n2)c1 [Example Z141, 5-(((4-(Pyrrolidine-1-carbonyl)thieno[3,2-d]pyrimidin-2-yl)amino)methyl)nicotinonitrile] |  |  |  |  |  | 102 µL/min/1e6 cells | > 500 nM | > 500 nM | 35.53 | 10 to 50 nM | 38.7 µL/min/1e6 cells | > 500 nM
CNc1cc2nc(N[C@@H](C)c3cccnc3)nc(C(=O)N3CCCC3)c2s1 [Example Z152, (S)-(6-(Methylamino)-2-((1-(pyridin-3-yl)ethyl)amino)thieno[3,2-d]pyrimidin-4-yl)(pyrrolidin-1-yl)methanone] |  |  |  |  |  | 38.3 µL/min/1e6 cells | 50 to 100 nM | > 500 nM | 53.70 | < 10 nM | 12.3 µL/min/1e6 cells | 100 to 500 nM
C[C@H](Nc1nc(C(=O)NC2CCC2)c2sccc2n1)c1ccccn1 [Example Z147, (S)—N-Cyclobutyl-2-((1-(pyridin-2-yl)ethyl)amino)thieno[3,2-d]pyrimidine-4-carboxamide] |  |  |  |  |  | 68.3 µL/min/1e6 cells | 100 to 500 nM | > 500 nM | 2.82 | < 10 nM | 43.5 µL/min/1e6 cells | 10 to 50 nM
COC1CN(C(=O)c2nc(N[C@@H](C)c3cccnc3)nc3ccsc23)C1 [Example Z139, (S)-(3-Methoxyazetidin-1-yl)(2-((1-(pyridin-3-yl)ethyl)amino)thieno[3,2-d]pyrimidin-4-yl)methanone] |  |  |  |  |  | 24.2 µL/min/1e6 cells | > 500 nM | > 500 nM | 8.08 | < 10 nM | 7.67 µL/min/1e6 cells | 50 to 100 nM
O=C(NCCO)c1nc(NCc2cc(F)cc(F)c2)nc2ccsc12 [Example Z169, 2-((3,5-Difluorobenzyl)amino)-N-(2-hydroxyethyl)thieno[3,2-d]pyrimidine-4-carboxamide] |  |  |  |  |  | 43.7 µL/min/1e6 cells | > 500 nM | > 500 nM | 26.40 | < 10 nM | 55.6 µL/min/1e6 cells | 100 to 500 nM
C[C@H](Nc1nc(C(=O)N2CC[C@H](O)C2)c2sccc2n1)c1cccc(F)c1 [Example Z129, (2-(((S)-1-(3-Fluorophenyl)ethyl)amino)thieno[3,2-d]pyrimidin-4-yl)((S)-3-hydroxypyrrolidin-1-yl)methanone] |  |  |  |  |  | 43 µL/min/1e6 cells | 50 to 100 nM | > 500 nM | 22.27 | 10 to 50 nM | 9.59 µL/min/1e6 cells | 100 to 500 nM
